# Laboratory results as given in US9809597B2, “Ganciclovir derivatives for modulating innate and adaptive immunity and for use in immunotherapy” (The Board of Trustees of the Leland Stanford Junior …, priority 2015, dated 2017).
# Experiments:
# [1] = tested on: THP-1 human monocyte cells; assay: RT-PCR for CXCL10 in THP-1 cells; type: cell-based; details: 200 μM, 8-24 hours
# Protocol: BV-2 mouse microglia cells were grown in DMEM+10% FBS and THP-1 human monocyte cells were grown in RPMI-40+10% FBS+0.05 mM β-mercaptoethanol at 37° C., 5% CO2. Adherent cells were split using 1×TrypLE (Gibco). For cellular assays, cells were treated with the following concentrations of drugs as indicated in the DMEM without serum: 100-200 μM ganciclovir, 10 ng/ml IFNγ (R&D systems), 100 ng/ml LPS (Sigma-Aldrich), 1-10 μM Fludarabine (Selleckchem), 1 μM Ruxolitinib (Selleckchem), 1 μM TG-101348 (Selleckchem), 1 μM Amlexanox (Tocris bioscience) unless otherwise noted. All experiments were run in triplicates and replicated at least 3 times with cell lines and at least twice with primary microglia. Average data are shown for cell lines and representative data are shown for primary cells. Secreted signaling proteins were measured in supernatants from cultured cells stimulated with GCV and conditioned for 24 hours in the absence of serum using two independent Luminex arrays (Human Immune Monitoring Center, Stanford and Eve technologies, Canada). Nitrite assay was performed on conditioned culture supernatants of cells stimulated with drugs for 24 hours using the Griess Reagent System (Promega) according to manufacturer's instructions. To assess cellular viability, cell confluence was measured using an automated microscope (Cellavista; Roche). […]
# [2] = tested on: BV-2 and primary microglia stimulated with IFNγ and LPS; assay: RT-PCR of inflammatory transcripts in IFNγ/LPS stimulated microglia; type: cell-based, mouse; details: 200 μM GCV, 24 hours
# Protocol: BV-2 mouse microglia cells were grown in DMEM+10% FBS and THP-1 human monocyte cells were grown in RPMI-40+10% FBS+0.05 mM β-mercaptoethanol at 37° C., 5% CO2. Adherent cells were split using 1×TrypLE (Gibco). For cellular assays, cells were treated with the following concentrations of drugs as indicated in the DMEM without serum: 100-200 μM ganciclovir, 10 ng/ml IFNγ (R&D systems), 100 ng/ml LPS (Sigma-Aldrich), 1-10 μM Fludarabine (Selleckchem), 1 μM Ruxolitinib (Selleckchem), 1 μM TG-101348 (Selleckchem), 1 μM Amlexanox (Tocris bioscience) unless otherwise noted. All experiments were run in triplicates and replicated at least 3 times with cell lines and at least twice with primary microglia. Average data are shown for cell lines and representative data are shown for primary cells. Secreted signaling proteins were measured in supernatants from cultured cells stimulated with GCV and conditioned for 24 hours in the absence of serum using two independent Luminex arrays (Human Immune Monitoring Center, Stanford and Eve technologies, Canada). Nitrite assay was performed on conditioned culture supernatants of cells stimulated with drugs for 24 hours using the Griess Reagent System (Promega) according to manufacturer's instructions. To assess cellular viability, cell confluence was measured using an automated microscope (Cellavista; Roche). Mice were housed and bred according to the Institutional Animal Care and Use Committee guidelines. Primary microglia and astrocytes were isolated from P0-P3 C57BL/6 mouse pups. Cortices from pups were isolated, meninges removed and tissue was dissociated using a 25-gauge needle. Two cortices were plated on each poly-L-lysine coated T-75 flasks in DMEM/F12+10% FBS+1% penicillin/streptomycin. Microglia and astrocyte co-cultures were maintained for 3 weeks, after which microglia were isolated using CD11b magnetic beads (Miltenyi Biotec) according to the manufacturer's instructions. Isolated microglia were allowed to recover for 1-2 days and processed for cellular assays described above. RNA was isolated from cells using RNeasy mini kit from Qiagen. […] was converted to cDNA using SuperScript III reverse transcriptase kit (Life technologies). The cDNA was used to quantify specific targets using SYBR green in Roche Lightcycler 480. ΔΔCt values normalized against the experimental control to determine fold change in mRNA for each sample compared to untreated or vehicle treated control. β-actin or Ubc or both were used as housekeeping genes. Primer sequences were obtained from PrimerBank. Fold change is shown compared to the vehicle treated or untreated cells, unless otherwise noted.
# [3] = tested on: BV-2 microglia; assay: siRNA knockdown (STING, IRF3, Stat1, Jak2), then RT-PCR for CXCL10; type: cell-based, mouse
# Protocol: Smartpool siRNAs against mouse targets were bought from Dharmacon and transfected in microglia cells using Viromer Blue from Lipocalyx at a concentration of 50 nM according to manufacturer's instructions. Drugs were added cells after 24 hours of transfection and assays done 24 hours after addition of drugs.
# RNA was isolated from cells using RNeasy mini kit from Qiagen. DNased RNA was converted to cDNA using SuperScript III reverse transcriptase kit (Life technologies). The cDNA was used to quantify specific targets using SYBR green in Roche Lightcycler 480. ΔΔCt values normalized against the experimental control to determine fold change in mRNA for each sample compared to untreated or vehicle treated control. β-actin or Ubc or both were used as housekeeping genes. Primer sequences were obtained from PrimerBank. Fold change is shown compared to the vehicle treated or untreated cells, unless otherwise noted.
# [4] = BV-2 and primary microglia stimulated with IFNγ and LPS
# [5] = IFNγ/LPS-stimulated STING^gt/gt primary microglia
# [6] = BV-2 microglia, siRNA 24 hours, then 200 μM for 24 hours
smiles,measurement,setting,value
"Nc1nc(O)c2ncn(COC(CO)CO)c2n1 [GCV, Ganciclovir]",induction of CXCL10 mRNA in human monocyte cell line,[1],induced
same,CCL2 transcript,[2]; [4],almost complete transcriptional inhibition
same,iNOS transcript,[2]; [4],almost complete transcriptional inhibition
same,iNOS and CCL2 transcripts in GCV treated STING^gt/gt microglia,[2]; [5],higher
same,reduction of inflammatory markers in STING^gt/gt primary microglia,[2]; [5],unable to do so
same,inflammatory markers in wildtype primary microglia,[2]; IFNγ/LPS-stimulated wildtype primary microglia,reduced
same,CXCL10 or IFNβ mRNA expression after siRNA knockdown of Stat1 and Jak2 or lack of Stat1,"[3]; BV-2 cells (siRNA) or Stat1 knockout primary microglia, 200 μM",significantly reduced
same,capacity to induce CXCL10 after siRNA knock down of STING,[3]; [6],to a lesser extent
same,potential to induce CXCL10 mRNA after siRNA knockdown of IRF3,[3]; [6],inhibited
